Calls of active or inactive are those of the source.
Columns and labels:
[1] = biological target: Glyceraldehyde-3-phosphate dehydrogenase (Homo sapiens, UniProt P04406)
Bcl-2-related protein A1 [2] = biological target: T1, Bcl-2-related protein A1 (Mus musculus, UniProt Q07440); assay: Bfl-1 binding inhibitors, SAR follow-up, biochemical, fluorescence polarization (AID 1070)
T1 sequence (Q07440 whole entry): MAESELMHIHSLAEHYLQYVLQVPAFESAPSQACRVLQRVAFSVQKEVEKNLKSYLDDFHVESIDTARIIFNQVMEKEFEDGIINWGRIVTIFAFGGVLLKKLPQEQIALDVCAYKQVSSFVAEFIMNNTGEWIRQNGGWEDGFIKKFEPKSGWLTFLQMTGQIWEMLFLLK

Bcl-2-related protein A1 [3] = biological target: T1, Bcl-2-related protein A1; assay: small-molecule antagonists of Bfl-1/BH3 interaction – biochemical, TR-FRET, mouse Bfl-1, confirmation (AID 621);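 note: TR-FRET binding of GST-Bfl-1 to FITC-labelled Bid peptide via terbium antibody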
Cytochrome P450 1A2 = biological target: T2, Cytochrome P450 1A2 (Homo sapiens, UniProt P05177);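 note: PubChem cytochrome P450 panel assay, CYP1A2 panel member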
T2 sequence (P05177 whole entry): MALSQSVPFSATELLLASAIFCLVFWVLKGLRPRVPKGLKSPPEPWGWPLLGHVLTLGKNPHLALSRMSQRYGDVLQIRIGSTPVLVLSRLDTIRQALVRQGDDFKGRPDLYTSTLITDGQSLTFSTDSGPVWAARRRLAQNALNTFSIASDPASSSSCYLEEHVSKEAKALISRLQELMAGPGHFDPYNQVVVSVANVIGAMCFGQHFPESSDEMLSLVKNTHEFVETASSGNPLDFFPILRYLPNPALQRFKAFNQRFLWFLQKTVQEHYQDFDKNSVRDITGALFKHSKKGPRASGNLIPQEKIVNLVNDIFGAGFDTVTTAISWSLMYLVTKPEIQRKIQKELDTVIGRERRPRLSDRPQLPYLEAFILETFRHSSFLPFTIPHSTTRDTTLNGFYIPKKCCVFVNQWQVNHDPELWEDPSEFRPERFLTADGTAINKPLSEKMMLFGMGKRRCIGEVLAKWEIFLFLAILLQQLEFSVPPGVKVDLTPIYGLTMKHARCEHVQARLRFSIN

[4] = biological target: T3, Dual specificity protein phosphatase 6 (Rattus norvegicus, UniProt Q64346); assay: inhibition of rat DUSP6 enzyme activity – biochemical, in vitro, primary screen (AID 425)
T3 sequence (Q64346 whole entry): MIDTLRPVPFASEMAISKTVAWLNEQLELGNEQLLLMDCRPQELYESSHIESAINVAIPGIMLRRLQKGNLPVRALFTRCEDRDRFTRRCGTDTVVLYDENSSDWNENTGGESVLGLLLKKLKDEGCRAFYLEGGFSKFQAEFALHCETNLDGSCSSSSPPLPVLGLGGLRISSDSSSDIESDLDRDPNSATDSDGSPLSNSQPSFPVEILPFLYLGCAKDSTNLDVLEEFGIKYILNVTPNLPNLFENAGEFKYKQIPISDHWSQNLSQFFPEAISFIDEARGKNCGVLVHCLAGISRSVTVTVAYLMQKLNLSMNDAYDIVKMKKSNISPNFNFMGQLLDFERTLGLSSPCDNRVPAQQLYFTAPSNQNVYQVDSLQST

[5] = blockers of HIV-1 envelope-mediated cell-cell fusion – cherry-pick, dose response (AID 652057); type: functional, cell-based
[6] = off-target signal loss in HeLa-CEM21 co-culture – HeLa F-luc CTL cells, cherry-picked, counter-screen for HIV-1 Env fusion inhibitor project, dose response (AID 652040); type: functional, cell-based;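 note: potency for signal decrease marking cytotoxic or nonspecific inhibition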
[7] = HIV-1 AD8 envelope cell-cell fusion blockers – cherry-pick, dose response (AID 652062); type: functional, cell-based;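 note: luciferase signal from cell-cell fusion driven by HIV-1 clade B AD8 Env; potency is for inhibitors of fusion seen as a drop in luminescence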
[8] = blockers of HIV-1 ZM109 envelope-driven cell-cell fusion – HeLa effector, CEM target cells, luciferase, cherry-pick, dose response (AID 652058); type: functional, cell-based;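 note: luciferase signal from HIV-1 Env mediated cell-cell fusion of effector and target cells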
[9] = biological target: T4, Mannose-6-phosphate isomerase (Homo sapiens, UniProt P34949); assay: MPI inhibition at elevated mannose 6-phosphate – biochemical, fluorescence intensity, high mannose 6-phosphate, primary screen (AID 1220)
T4 sequence (P34949 whole entry): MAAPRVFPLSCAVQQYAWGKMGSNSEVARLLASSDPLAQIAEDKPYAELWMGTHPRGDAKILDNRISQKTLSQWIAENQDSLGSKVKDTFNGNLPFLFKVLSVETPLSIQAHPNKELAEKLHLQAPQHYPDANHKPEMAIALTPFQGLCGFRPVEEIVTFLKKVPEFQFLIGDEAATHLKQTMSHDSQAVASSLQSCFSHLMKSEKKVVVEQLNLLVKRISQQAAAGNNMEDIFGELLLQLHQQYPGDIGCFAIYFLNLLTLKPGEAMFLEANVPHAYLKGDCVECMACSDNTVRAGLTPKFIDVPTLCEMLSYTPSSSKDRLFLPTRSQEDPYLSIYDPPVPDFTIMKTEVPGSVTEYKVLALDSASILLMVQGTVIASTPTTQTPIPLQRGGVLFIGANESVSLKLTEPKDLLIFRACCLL

[10] = HIV-1 Vif–A3G interaction blockers – biochemical, TR-FRET, GST-Vif 1-94, biotin-A3G peptide, dose response retest, primary screen (AID 1117319); type: functional;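 note: TR-FRET signal of purified GST-Vif binding a biotinylated A3G peptide; inhibitors lower the FRET signal by blocking Vif and A3G binding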
Protein Tat = biological target: T5, Protein Tat (Human immunodeficiency virus type 1 group M subtype B (isolate HXB2)(HIV-1), UniProt P04608); type: functional;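 note: tat binding to TAR RNA read out by fluorescence polarization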
T5 sequence (P04608 whole entry): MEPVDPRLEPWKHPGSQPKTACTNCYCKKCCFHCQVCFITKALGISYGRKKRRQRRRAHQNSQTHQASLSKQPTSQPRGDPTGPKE

[11] = biological target: FAD-linked sulfhydryl oxidase ALR (Homo sapiens, UniProt P55789); assay: ALR-catalysed DTT oxidation blockers – biochemical, H2O2 detection, luminescence, cherry-pick, dose response (AID 493248)
FAD-linked sulfhydryl oxidase ALR, sequence (P55789 whole entry): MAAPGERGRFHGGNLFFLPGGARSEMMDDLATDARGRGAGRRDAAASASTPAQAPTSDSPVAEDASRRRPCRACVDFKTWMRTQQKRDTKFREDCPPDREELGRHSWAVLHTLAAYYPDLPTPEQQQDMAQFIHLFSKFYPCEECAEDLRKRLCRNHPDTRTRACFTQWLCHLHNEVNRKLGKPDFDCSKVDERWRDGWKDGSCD

[12] = biological target: T6, Rac GTPase-activating protein 1 (Homo sapiens, UniProt Q9H0H5); assay: blockers of MgcRacGAP-driven Rac1 GTP hydrolysis – biochemical, ADP Hunter fluorescence, primary and confirmatory, confirmation (AID 624330); type: functional
T6 sequence (Q9H0H5 whole entry): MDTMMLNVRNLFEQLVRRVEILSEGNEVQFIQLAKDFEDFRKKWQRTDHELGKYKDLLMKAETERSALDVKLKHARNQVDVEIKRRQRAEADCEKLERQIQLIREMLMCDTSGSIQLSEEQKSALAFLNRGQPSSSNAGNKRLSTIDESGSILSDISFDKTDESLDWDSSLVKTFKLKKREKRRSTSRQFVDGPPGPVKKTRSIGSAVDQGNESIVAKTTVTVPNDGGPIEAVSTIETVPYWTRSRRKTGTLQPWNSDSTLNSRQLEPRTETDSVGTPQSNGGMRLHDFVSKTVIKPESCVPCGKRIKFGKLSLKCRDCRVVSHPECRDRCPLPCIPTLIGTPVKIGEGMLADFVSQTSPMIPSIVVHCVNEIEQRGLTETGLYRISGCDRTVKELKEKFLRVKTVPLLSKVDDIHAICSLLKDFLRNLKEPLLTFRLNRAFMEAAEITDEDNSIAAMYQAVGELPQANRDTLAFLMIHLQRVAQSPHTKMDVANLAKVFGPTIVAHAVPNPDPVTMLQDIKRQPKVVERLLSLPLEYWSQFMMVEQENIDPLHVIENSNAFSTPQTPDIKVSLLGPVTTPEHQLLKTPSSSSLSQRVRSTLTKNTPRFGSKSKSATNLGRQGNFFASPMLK

Protein skinhead-1 = biological target: T7, Protein skinhead-1 (Caenorhabditis elegans, UniProt P34707); type: functional
T7 sequence (P34707 whole entry): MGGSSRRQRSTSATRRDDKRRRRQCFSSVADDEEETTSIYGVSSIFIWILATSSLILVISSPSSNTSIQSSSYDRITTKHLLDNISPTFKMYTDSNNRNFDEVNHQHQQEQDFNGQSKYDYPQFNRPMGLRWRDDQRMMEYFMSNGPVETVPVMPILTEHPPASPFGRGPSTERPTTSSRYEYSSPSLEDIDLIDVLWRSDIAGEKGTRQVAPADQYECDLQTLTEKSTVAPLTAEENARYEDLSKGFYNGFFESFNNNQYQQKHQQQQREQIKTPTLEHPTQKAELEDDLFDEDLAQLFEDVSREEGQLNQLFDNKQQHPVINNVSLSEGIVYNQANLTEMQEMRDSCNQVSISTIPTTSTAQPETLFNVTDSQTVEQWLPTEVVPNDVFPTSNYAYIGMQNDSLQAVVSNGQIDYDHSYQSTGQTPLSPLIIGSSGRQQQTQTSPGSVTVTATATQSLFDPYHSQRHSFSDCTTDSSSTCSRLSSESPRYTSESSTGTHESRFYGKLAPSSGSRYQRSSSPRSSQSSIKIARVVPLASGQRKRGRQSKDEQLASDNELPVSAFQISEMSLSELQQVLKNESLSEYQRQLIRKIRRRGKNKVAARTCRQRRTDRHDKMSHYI

[13] = P. falciparum Dd2 growth inhibitors, dose response, SYBR Green, cherry-picked samples (AID 1159567); type: functional, cell-based
[14] = viability of uninfected HEp-2 cells – cell-based, HTS, cytotoxicity control for RSV inhibitor project, dose response (AID 2410); type: functional; details: human respiratory syncytial virus
[15] = tested on: Streptococcus sp. 'group A'; assay: Streptococcus pyogenes SK(-)GAS viability under kanamycin – luminescence, BacTiterGlo, confirmation, counter-screen for streptokinase expression inhibitor project, dose response (AID 1900); type: functional, organism-based
Streptococcus = assay: GAS UMAA2166 growth inhibition – luminescence, BacTiterGlo, counter-screen for streptokinase expression inhibitor project, dose response (AID 1915); type: functional, organism-based;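 note: potency for reduction of bacterial viability or growth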
Streptokinase A = biological target: T8, Streptokinase A (Streptococcus pyogenes serotype M1, UniProt P10520); assay: viability-normalized secreted streptokinase activity reduction – plasminogen activation absorbance, OD405, dose response (AID 1914); type: functional, Streptococcus pyogenes M1 GAS;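 note: secreted streptokinase activity via plasminogen activation per viability signal from cell pellet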
T8 sequence (P10520 whole entry): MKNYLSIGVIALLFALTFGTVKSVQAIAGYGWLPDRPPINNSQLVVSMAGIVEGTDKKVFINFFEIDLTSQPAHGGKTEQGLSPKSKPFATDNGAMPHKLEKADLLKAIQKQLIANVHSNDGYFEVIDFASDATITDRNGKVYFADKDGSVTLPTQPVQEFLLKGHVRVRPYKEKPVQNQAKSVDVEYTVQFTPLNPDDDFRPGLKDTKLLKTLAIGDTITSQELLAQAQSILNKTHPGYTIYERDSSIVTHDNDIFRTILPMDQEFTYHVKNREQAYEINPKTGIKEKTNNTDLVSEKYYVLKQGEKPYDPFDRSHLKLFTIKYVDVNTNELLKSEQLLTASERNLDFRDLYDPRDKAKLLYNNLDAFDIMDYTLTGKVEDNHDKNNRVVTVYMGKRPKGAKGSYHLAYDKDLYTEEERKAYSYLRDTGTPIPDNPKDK

[16] = NIH3T3 cell viability loss – ATP luminescence, mouse fibroblasts, counter-screen, dose response (AID 2010); type: functional, cell-based;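 note: cells exposed to compound for about 90 hours before reading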
[17] = Trypanosoma cruzi growth suppression in host cells – NIH3T3 host cells, beta-gal luminescence, confirmation (AID 2044); type: functional, cell-based;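 note: intracellular parasites grown in NIH/3T3 mouse fibroblasts as host cells; luminescent beta-galactosidase reporter signal from transgenic T. cruzi replicating inside host cells; inhibitors lower the luminescence signal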
[18] = viability loss in THP-1 monocytes – THP-1 cells, cytotoxicity control for Vif-APOBEC3G degradation inhibitor project, dose response (AID 1117359); type: functional; details: THP-1

Glyceraldehyde-3-phosphate dehydrogenase, sequence (P04406 whole entry): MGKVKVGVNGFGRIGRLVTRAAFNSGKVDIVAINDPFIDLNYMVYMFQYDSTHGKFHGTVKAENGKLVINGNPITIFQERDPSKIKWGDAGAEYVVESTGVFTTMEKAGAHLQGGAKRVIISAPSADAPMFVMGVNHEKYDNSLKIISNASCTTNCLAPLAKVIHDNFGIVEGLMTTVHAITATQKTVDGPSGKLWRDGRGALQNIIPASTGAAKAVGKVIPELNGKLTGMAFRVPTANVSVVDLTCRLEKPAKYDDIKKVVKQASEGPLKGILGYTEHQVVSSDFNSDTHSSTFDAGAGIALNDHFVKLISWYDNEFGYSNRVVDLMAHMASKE

Cc1cccc(N2C(=O)C(Cl)=C(N3CCN(CCO)CC3)C2=O)c1
IC50 [1]: > 100 µM (not active)
IC50 (Bcl-2-related protein A1 [2]): 12.3 µM (active)
IC50 (Bcl-2-related protein A1 [3]): 11.5 µM (active)

COc1ccc(S(=O)(=O)N2CCC(NC(=O)Nc3ccc(C)cc3)CC2)cc1
AC50 (Cytochrome P450 1A2): 31.6 µM (inconclusive)
IC50 [4]: > 100 µM (not active)

COC(=O)[C@]1(C)N[C@H](CN(C)S(=O)(=O)c2ccc(-c3ccccc3)cc2)[C@@H]2C(=O)N(Cc3ccccc3)C(=O)[C@@H]21
AC50 [5]: 3.7 µM (active)
AC50 [6]: 5.77 µM (active)
AC50 [7]: 11.7 µM (active)
AC50 [8]: 9.4 µM (active)

Cc1cccc(Oc2c([N+](=O)[O-])c(=O)n(C)c3ccccc23)c1
IC50 [9]: > 50 µM (not active)

COCCn1c(-c2ccccc2Cl)nc2c(c(=O)c3ccccc3n2C)c1=O
IC50 (cells): 14.6 µM (active)

CC(C)n1/c(=N/C(=O)c2ccco2)c(C#N)cc2c(=O)n3ccccc3cc21
IC50 [10]: > 100 µM (active)

O=C1C(Cl)=C(N2CCN(c3ncccn3)CC2)C(=O)N1c1ccc(Cl)c(Cl)c1
IC50 [1]: > 100 µM (not active)
IC50 (Bcl-2-related protein A1 [2]): 1.9 µM (active)
IC50 (Bcl-2-related protein A1 [3]): 2.46 µM (active)

O=C1C(Cl)=C(Nc2ccccc2)C(=O)N1c1ccc(Cl)c(Cl)c1
IC50 [1]: > 100 µM (not active)
IC50 (Bcl-2-related protein A1 [2]): > 100 µM (not active)
IC50 (Bcl-2-related protein A1 [3]): > 100 µM (not active)

CC(=O)N1CCN(c2ccc(NCc3ccccc3)cc2)CC1
IC50 (Protein Tat): 13.7 µM (inconclusive)
AC50 [11]: 0.57 µM (active)
IC50 [12]: 10.5 µM (active)
IC50 [10]: > 50.5 µM (active)
IC50 (Protein skinhead-1): > 100 µM (inactive)

CCS(=O)(=O)N1[C@H](CO)[C@H](c2ccc(C#Cc3ccccc3F)cc2)[C@@H]1C#N
AC50 [13]: 4.23 µM (active)

COC(=O)C1=C(c2ccc(F)cc2F)C[C@@H]2CC[C@H]1N2C(=O)NCCOc1ccccc1Cl
CC50 [14]: 34.5 µM (active)
IC50 (cells): 13.9 µM (active)

CS(=O)(=O)c1nc(-c2ccccc2)cc(-c2ccccc2)n1
IC50 [1]: > 100 µM (not active)
IC50 (Bcl-2-related protein A1 [2]): > 100 µM (not active)
IC50 (Bcl-2-related protein A1 [3]): > 100 µM (not active)

CN(C)CCn1c(=O)n(-c2cccc(Cl)c2)c(=O)c2c3c(sc21)CCCCC3
AC50 [5]: 0.786 µM (active)
AC50 [6]: 1.96 µM (active)
AC50 [7]: 4.37 µM (active)
AC50 [8]: 0.997 µM (active)

Cc1ccc2c(C)c(C(=O)Nc3ccc(S(=O)(=O)Nc4onc(C)c4C)cc3)oc2c1
CC50 [14]: 24.4 µM (active)
IC50 (cells): 24.7 µM (active)
EC50 [15]: 23.8 µM (active)
EC50 (Streptococcus): > 150 µM (not active)
EC50 (Streptokinase A): > 150 µM (not active)

CC(=O)c1ccc(S(=O)(=O)N2CCN(c3nc4c(C)c(C)ccc4cc3C#N)CC2)cc1
AC50 [6]: 10.3 µM (active)
EC50 [16]: > 60 µM (not active)
AC50 [7]: 11.2 µM (active)
EC50 [17]: 1.9 µM (active)

COc1ccc(C(=O)Cn2c(=N)n(C)c3ccccc32)cc1
CC50 [18]: > 40 µM (active)
IC50 [10]: > 100 µM (active)

From ChEMBL document CHEMBL1201862, “PubChem BioAssay data set” (2004)
